Patent US9708333B2, “Fused bicyclic 1,2,4-triazine compounds as TAM inhibitors” (Incyte Corporation, priority 2015, dated 2017)

target: c-Mer (Homo sapiens (Human), UniProt Q12866); assay: TAM Enzymatic Assay (HTRF), c-Mer; type: biochemical; conditions: 0.0625 nM c-Mer, ATP-containing substrate solution, 60 min
Sequence (Q12866 21-999): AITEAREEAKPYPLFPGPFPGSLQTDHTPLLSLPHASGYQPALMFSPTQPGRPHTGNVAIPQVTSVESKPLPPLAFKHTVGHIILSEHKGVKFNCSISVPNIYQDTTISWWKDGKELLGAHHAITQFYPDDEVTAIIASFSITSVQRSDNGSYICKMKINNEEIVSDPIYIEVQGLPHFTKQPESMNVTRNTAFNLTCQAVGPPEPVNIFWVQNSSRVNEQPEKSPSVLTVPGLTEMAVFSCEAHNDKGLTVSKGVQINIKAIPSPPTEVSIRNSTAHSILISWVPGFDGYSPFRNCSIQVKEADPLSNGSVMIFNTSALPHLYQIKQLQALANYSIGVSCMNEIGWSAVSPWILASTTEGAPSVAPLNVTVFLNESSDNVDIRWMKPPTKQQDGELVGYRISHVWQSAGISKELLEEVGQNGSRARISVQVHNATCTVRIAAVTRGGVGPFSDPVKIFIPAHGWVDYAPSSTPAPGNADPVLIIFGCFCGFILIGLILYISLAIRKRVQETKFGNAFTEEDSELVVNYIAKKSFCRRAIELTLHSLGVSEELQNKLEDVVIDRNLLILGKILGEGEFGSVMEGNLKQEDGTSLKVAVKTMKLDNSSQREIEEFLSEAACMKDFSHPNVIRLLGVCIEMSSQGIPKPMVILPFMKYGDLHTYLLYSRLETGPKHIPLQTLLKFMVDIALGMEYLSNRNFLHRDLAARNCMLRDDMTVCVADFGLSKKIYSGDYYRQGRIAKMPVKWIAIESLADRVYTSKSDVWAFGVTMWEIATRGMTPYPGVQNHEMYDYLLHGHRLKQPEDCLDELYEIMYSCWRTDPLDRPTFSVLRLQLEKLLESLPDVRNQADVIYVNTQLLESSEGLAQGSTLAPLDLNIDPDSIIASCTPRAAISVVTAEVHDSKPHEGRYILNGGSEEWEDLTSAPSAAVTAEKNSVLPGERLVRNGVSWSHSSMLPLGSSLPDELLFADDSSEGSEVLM

IC50 [nM] | Compound
≤ 100 | CCCCNc1ncc2c(-c3cccc(CO)c3)nc(C3CCC(O)CC3)n2n1 (single isomer, unassigned) [8 (1st peak), 4-{2-(Butylamino)-5-[3-(hydroxymethyl)phenyl]imidazo[5,1-f][1,2,4]triazin-7-yl}cyclohexanol]
≤ 100 | CCCCNc1ncc2c(-c3ccc(CN4CCN(C)CC4)cc3)nc([C@H]3CC[C@@H](O)CC3)n2n1 [1 (2nd peak, cis-), cis-4-(2-(Butylamino)-5-{4-[(4-methylpiperazin-1-yl)methyl]phenyl}imidazo[5,1-f][1,2,4]triazin-7-yl)cyclohexanol]
≤ 100 | CCCCNc1ncc2c(-c3ccc(CN4CCOCC4)cc3)nc([C@H]3CC[C@H](O)CC3)n2n1 [2 (1st peak, trans-), trans-4-{2-(Butylamino)-5-[4-(morpholin-4-ylmethyl)phenyl]imidazo[5,1-f][1,2,4]triazin-7-yl}cyclohexanol]
≤ 100 | CCCCNc1ncc2c(-c3ccc(CO)cc3)nc([C@H]3CC[C@H](O)CC3)n2n1 [3 (1st peak, trans-), trans-4-{2-(Butylamino)-5-[4-(hydroxymethyl)phenyl]imidazo[5,1-f][1,2,4]triazin-7-yl}cyclohexanol]
> 1000 | CCCCNc1ncc2c(-c3ccc(CO)cc3)nc([C@H]3CC[C@@H](O)CC3)n2n1 [3 (2nd peak, cis-), cis-4-{2-(Butylamino)-5-[4-(hydroxymethyl)phenyl]imidazo[5,1-f][1,2,4]triazin-7-yl}cyclohexanol]

target: Tyro3 (Homo sapiens (Human), UniProt Q06418); assay: TAM Enzymatic Assay (HTRF), Tyro3; type: biochemical; conditions: 0.366 nM Tyro3, 60 min
Sequence (Q06418 41-890): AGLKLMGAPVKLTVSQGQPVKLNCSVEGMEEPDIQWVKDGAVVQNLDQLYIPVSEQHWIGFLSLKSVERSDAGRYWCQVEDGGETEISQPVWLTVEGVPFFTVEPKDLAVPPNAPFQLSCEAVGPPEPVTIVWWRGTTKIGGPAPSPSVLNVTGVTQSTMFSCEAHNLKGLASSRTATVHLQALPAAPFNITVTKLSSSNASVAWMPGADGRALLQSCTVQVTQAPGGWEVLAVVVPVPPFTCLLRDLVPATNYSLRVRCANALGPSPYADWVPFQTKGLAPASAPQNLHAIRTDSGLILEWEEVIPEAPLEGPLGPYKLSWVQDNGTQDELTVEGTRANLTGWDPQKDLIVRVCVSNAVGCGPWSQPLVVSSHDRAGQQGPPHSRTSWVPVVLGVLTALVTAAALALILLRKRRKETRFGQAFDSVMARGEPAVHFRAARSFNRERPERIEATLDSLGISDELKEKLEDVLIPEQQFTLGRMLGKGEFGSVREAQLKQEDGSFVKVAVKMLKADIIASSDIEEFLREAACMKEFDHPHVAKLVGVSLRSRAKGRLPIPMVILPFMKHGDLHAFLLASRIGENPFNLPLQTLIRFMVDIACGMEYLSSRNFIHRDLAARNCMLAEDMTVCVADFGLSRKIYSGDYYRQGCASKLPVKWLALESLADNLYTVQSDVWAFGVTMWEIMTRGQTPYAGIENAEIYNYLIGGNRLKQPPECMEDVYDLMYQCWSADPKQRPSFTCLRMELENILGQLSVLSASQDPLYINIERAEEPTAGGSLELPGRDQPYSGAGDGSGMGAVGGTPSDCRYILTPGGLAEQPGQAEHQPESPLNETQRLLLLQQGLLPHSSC
Method: The kinase assay buffer contained 50 mM HEPES, pH7.5, 10 mM MgCl2, 1 mM EGTA, 0.01% NP-40 and 2 mM DTT. 0.1 ul test compounds dissolved in DMSO were transferred from compound plates to white 384-well assay plates (Greiner [sequence] plates). […] 4 ul enzyme solution (or assay buffer for the enzyme blank) was added to the appropriate wells in each plate, and then 4 ul/well substrate solution was added to initiate the reaction. The plate was protected from light and incubated at room temperature for 60 min. […] The plate was incubated for 1 h at room temperature, and HTRF (homogenous time resolved fluorescence) signal was measured on a PHERAstar FS plate reader (BMG labtech). Percentage of inhibition was calculated for each concentration and IC50 value was generated from curve fitting with GraphPad Prism software.

IC50 [nM] | Compound
100 to 500 | CCCCNc1ncc2c(-c3ccc(CN4CCN(C)CC4)cc3)nc([C@H]3CC[C@@H](O)CC3)n2n1 [1 (2nd peak, cis-), cis-4-(2-(Butylamino)-5-{4-[(4-methylpiperazin-1-yl)methyl]phenyl}imidazo[5,1-f][1,2,4]triazin-7-yl)cyclohexanol]
100 to 500 | CCCCNc1ncc2c(-c3ccc(CN4CCOCC4)cc3)nc([C@H]3CC[C@H](O)CC3)n2n1 [2 (1st peak, trans-), trans-4-{2-(Butylamino)-5-[4-(morpholin-4-ylmethyl)phenyl]imidazo[5,1-f][1,2,4]triazin-7-yl}cyclohexanol]

target: JAK1 (Homo sapiens (Human), UniProt P23458); assay: not given; conditions: 1 mM ATP; cited from earlier work
Sequence (P23458 whole entry, species assumed): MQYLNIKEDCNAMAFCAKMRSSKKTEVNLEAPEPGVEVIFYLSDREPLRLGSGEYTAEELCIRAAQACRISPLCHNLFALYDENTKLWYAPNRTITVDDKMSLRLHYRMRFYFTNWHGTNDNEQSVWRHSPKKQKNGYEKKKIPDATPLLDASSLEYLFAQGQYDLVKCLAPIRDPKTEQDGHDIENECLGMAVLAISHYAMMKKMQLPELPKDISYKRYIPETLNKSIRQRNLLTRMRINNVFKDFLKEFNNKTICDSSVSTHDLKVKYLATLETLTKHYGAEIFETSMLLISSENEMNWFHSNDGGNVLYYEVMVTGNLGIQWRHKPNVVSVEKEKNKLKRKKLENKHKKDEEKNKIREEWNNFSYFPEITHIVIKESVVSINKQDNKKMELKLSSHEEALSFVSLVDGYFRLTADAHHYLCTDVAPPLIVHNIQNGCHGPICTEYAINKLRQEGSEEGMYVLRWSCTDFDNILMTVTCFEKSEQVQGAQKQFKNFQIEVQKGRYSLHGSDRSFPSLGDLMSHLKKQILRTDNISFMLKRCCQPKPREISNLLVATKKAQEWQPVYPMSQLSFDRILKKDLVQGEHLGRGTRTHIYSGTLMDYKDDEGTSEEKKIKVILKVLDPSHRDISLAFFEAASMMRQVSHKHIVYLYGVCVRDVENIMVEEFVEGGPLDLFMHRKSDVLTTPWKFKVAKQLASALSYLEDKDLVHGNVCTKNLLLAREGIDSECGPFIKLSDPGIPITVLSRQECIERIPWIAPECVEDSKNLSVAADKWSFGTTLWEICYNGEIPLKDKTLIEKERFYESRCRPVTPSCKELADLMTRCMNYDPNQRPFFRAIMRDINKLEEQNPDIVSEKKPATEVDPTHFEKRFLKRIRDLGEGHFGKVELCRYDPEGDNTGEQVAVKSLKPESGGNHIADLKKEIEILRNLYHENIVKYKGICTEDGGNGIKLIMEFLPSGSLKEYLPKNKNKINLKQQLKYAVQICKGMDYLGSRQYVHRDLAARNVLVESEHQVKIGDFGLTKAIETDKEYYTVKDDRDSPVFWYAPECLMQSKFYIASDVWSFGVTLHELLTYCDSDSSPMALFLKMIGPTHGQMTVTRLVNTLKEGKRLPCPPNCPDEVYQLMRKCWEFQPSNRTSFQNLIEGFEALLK

Compound | IC50 [nM]
trans-7-((4-Aminocyclohexyl)methyl)-5-(4-fluorophenyl)-N-(3-phenylpropyl)imidazo [5,1-f][1,2,4]triazin-2-amine [Example 14] | < 10

same assay, conditions: selectivity ratio, IC50 at 1 mM ATP; cited from earlier work

Compound | JAK2/JAK1
C[C@@H](O)c1nc2cnc3ccsc3c2n1[C@H]1CC[C@H](CC#N)OC1 [Compound 1, ((2R,5S)-5-{2-[(1R)-1-hydroxyethyl]-1H-imidazo[4,5-d]thieno[3,2-b]pyridin-1-yl}tetrahydro-2H-pyran-2-yl)acetonitrile] | >10
N#CCC(C1CCN(c2cccc(Cl)n2)C1)n1cc(-c2ncnc3[nH]ccc23)cn1 (centres unmarked) [Compound 3, 3-[1-(6-chloropyridin-2-yl)pyrrolidin-3-yl]-3-[4-(7H-pyrrolo[2,3-d]pyrimidin-4-yl)-1H-pyrazol-1-yl]propanenitrile] | >10
N#CCC(C1CCN(c2nc3cccnc3o2)C1)n1cc(-c2ncnc3[nH]ccc23)cn1 (centres unmarked) [Compound 4, 3-(1-[1,3]oxazolo[5,4-b]pyridin-2-ylpyrrolidin-3-yl)-3-[4-(7H-pyrrolo[2,3-d]pyrimidin-4-yl)-1H-pyrazol-1-yl]propanenitrile] | >10
N#CCC(CN1CCN(C(=O)c2ccc(C#N)cc2F)CC1)n1cc(-c2ncnc3[nH]ccc23)cn1 (centres unmarked) [Compound 5, 4-[(4-{3-cyano-2-[4-(7H-pyrrolo[2,3-d]pyrimidin-4-yl)-1H-pyrazol-1-yl]propyl}piperazin-1-yl)carbonyl]-3-fluorobenzonitrile] | >10
N#CCC(CN1CCN(C(=O)c2ccc(C#N)cc2F)CC1)n1ccc(-c2ncnc3[nH]ccc23)c1 (centres unmarked) [Compound 6, 4-[(4-{3-cyano-2-[3-(7H-pyrrolo[2,3-d]pyrimidin-4-yl)-1H-pyrrol-1-yl]propyl}piperazin-1-yl)carbonyl]-3-fluorobenzonitrile] | >10
N#CCC1(n2cc(-c3ncnc4[nH]ccc34)cn2)CN(C2CCN(C(=O)c3ccnc(C(F)(F)F)c3F)CC2)C1 [Compound 7, {1-{1-[3-Fluoro-2-(trifluoromethyl)isonicotinoyl]piperidin-4-yl}-3-[4-(7H-pyrrolo[2,3-d]pyrimidin-4-yl)-1H-pyrazol-1-yl]azetidin-3-yl}acetonitrile] | >10
N#CCC1(n2cc(-c3ncnc4[nH]ccc34)cn2)CN(C2CCN(C(=O)Nc3ccc(F)cc3C(F)(F)F)CC2)C1 [Compound 8, 4-{3-(Cyanomethyl)-3-[4-(7H-pyrrolo[2,3-d]pyrimidin-4-yl)-1H-pyrazol-1-yl]azetidin-1-yl}-N-[4-fluoro-2-(trifluoromethyl)phenyl]piperidine-1-carboxamide] | >10
N#CCC1(n2cc(-c3ncnc4[nH]ccc34)cn2)CN(C2CCN(C(=O)c3ccnc(C(F)(F)F)n3)CC2)C1 [Compound 9, [3-[4-(7H-pyrrolo[2,3-d]pyrimidin-4-yl)-1H-pyrazol-1-yl]-1-(1-{[2-(trifluoromethyl)pyrimidin-4-yl]carbonyl}piperidin-4-yl)azetidin-3-yl]acetonitrile] | >10
N#CC[C@]1(n2cc(-c3ncnc4[nH]ccc34)cn2)C[C@H](N2CCN(C(=O)c3ccnc(C(F)(F)F)n3)CC2)C1 [Compound 10, [trans-1-[4-(7H-pyrrolo[2,3-d]pyrimidin-4-yl)-1H-pyrazol-1-yl]-3-(4-{[2-(trifluoromethyl)pyrimidin-4-yl]carbonyl}piperazin-1-yl)cyclobutyl] acetonitrile] | >10
C[C@H](NC(=O)c1cc(F)c(N2CC(CC#N)(n3cc(-c4ncnc5[nH]ccc45)cn3)C2)cc1F)C(F)(F)F [Compound 16, 4-{3-(cyanomethyl)-3-[4-(7H-pyrrolo [2,3-d]pyrimidin-4-yl)-1H-pyrazol-1-yl]azetidin-1-yl}-2,5-difluoro-N-[(1S)-2,2,2-trifluoro-1-methylethyl] benzamide] | >10
N#CCC1(n2cc(-c3ncnc4[nH]ccc34)cn2)CN([C@H]2CC[C@@H](Oc3cc(CCO)nc(C(F)(F)F)n3)CC2)C1 [Compound 18, {1-(cis-4-{[6-(2-hydroxyethyl)-2-(trifluoromethyl)pyrimidin-4-yl]oxy}cyclohexyl)-3-[4-(7H-pyrrolo [2,3-d]pyrimidin-4-yl)-1H-pyrazol-1-yl]azetidin-3-yl}acetonitrile] | >10
CCNCc1cc(O[C@H]2CC[C@@H](N3CC(CC#N)(n4cc(-c5ncnc6[nH]ccc56)cn4)C3)CC2)nc(C(F)(F)F)c1 [Compound 19, {1-(cis-4-{[4-[(ethylamino)methyl]-6-(trifluoromethyl)pyridin-2-yl]oxy}cyclohexyl)-3-[4-(7H-pyrrolo [2,3-d]pyrimidin-4-yl)-1H-pyrazol-1-yl]azetidin-3-yl}acetonitrile] | >10
CC(C)(O)c1cc(O[C@H]2CC[C@@H](N3CC(CC#N)(n4cc(-c5ncnc6[nH]ccc56)cn4)C3)CC2)nc(C(F)(F)F)c1 [Compound 20, {1-(cis-4-{[4-(1-hydroxy-1-methylethyl)-6-(trifluoromethyl)pyridin-2-yl]oxy}cyclohexyl)-3-[4-(7H-pyrrolo [2,3-d]pyrimidin-4-yl)-1H-pyrazol-1-yl]azetidin-3-yl}acetonitrile] | >10
C[C@@H](CO)NCc1cc(OC2CCN([C@H]3C[C@](CC#N)(n4cc(-c5ncnc6[nH]ccc56)cn4)C3)CC2)nc(C(F)(F)F)c1 [Compound 23, {trans-3-(4-{[4-({[(1S)-2-hydroxy-1-methylethyl]amino}methyl)-6-(trifluoromethyl)pyridin-2-yl]oxy}piperidin-1-yl)-1-[4-(7H-pyrrolo[2,3-d]pyrimidin-4-yl)-1H-pyrazol-1-yl]cyclobutyl} acetonitrile] | >10
C[C@@H](O)CNCc1cc(OC2CCN([C@H]3C[C@](CC#N)(n4cc(-c5ncnc6[nH]ccc56)cn4)C3)CC2)nc(C(F)(F)F)c1 [Compound 24, {trans-3-(4-{[4-({[(2R)-2-hydroxypropyl]amino}methyl)-6-(trifluoromethyl)pyridin-2-yl]oxy}piperidin-1-yl)-1-[4-(7H-pyrrolo[2,3-d]pyrimidin-4-yl)-1H-pyrazol-1-yl]cyclobutyl} acetonitrile] | >10
C[C@H](O)CNCc1cc(OC2CCN([C@H]3C[C@](CC#N)(n4cc(-c5ncnc6[nH]ccc56)cn4)C3)CC2)nc(C(F)(F)F)c1 [Compound 25, {trans-3-(4-{[4-({[(2S)-2-hydroxypropyl]amino}methyl)-6-(trifluoromethyl)pyridin-2-yl]oxy}piperidin-1-yl)-1-[4-(7H-pyrrolo[2,3-d]pyrimidin-4-yl)-1H-pyrazol-1-yl]cyclobutyl} acetonitrile] | >10
N#CC[C@]1(n2cc(-c3ncnc4[nH]ccc34)cn2)C[C@H](N2CCC(Oc3cc(CCO)cc(C(F)(F)F)n3)CC2)C1 [Compound 26, {trans-3-(4-{[4-(2-hydroxyethyl)-6-(trifluoromethyl)pyridin-2-yl]oxy}piperidin-1-yl)-1-[4-(7H-pyrrolo[2,3-d]pyrimidin-4-yl)-1H-pyrazol-1-yl]cyclobutyl} acetonitrile] | >10
CCCCNc1ncc2c(-c3ccc(F)cc3)nc(C[C@H]3CC[C@H](N)CC3)n2n1 [Example 13, trans-7-[(4-Aminocyclohexyl)methyl]-N-butyl-5-(4-fluorophenyl)imidazo[5,1-f][1,2,4]triazin-2-amine] | >10
N[C@H]1CC[C@H](Cc2nc(-c3ccc(F)cc3)c3cnc(NCCCc4ccccc4)nn23)CC1 [Example 14, trans-7-((4-Aminocyclohexyl)methyl)-5-(4-fluorophenyl)-N-(3-phenylpropyl)imidazo [5,1-f][1,2,4]triazin-2-amine] | >10

target: PI3Kδ (Homo sapiens (Human), UniProt O00329); assay: not given; conditions: cited from earlier work
Sequence (O00329 whole entry, species assumed): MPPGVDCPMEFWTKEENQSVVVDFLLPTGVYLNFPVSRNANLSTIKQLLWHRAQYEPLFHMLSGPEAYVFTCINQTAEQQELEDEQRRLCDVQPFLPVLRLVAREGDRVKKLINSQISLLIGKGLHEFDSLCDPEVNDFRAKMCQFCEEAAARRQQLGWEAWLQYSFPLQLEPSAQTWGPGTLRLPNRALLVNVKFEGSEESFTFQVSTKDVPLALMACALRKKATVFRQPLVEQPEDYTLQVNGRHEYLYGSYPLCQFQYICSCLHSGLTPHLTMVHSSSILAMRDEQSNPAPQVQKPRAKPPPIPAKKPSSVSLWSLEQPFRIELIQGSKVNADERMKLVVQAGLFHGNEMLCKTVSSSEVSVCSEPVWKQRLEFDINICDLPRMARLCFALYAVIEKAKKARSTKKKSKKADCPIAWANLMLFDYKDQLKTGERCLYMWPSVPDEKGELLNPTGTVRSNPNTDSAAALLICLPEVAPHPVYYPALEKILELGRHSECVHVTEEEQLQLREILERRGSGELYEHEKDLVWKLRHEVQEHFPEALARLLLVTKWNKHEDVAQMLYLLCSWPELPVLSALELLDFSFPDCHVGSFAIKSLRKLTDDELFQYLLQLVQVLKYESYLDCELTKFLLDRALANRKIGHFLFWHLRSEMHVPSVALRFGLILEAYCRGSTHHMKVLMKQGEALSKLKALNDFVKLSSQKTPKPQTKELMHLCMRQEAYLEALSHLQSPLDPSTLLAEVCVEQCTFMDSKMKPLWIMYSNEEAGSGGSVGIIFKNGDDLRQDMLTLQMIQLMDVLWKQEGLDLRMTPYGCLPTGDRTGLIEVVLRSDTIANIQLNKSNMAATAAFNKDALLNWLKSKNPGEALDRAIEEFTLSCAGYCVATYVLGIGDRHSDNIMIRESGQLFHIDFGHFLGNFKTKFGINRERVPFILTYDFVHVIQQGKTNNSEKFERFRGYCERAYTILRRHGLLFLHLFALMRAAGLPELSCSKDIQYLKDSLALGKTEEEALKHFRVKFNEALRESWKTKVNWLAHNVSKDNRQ
Sequence (P27986 whole entry partner, species assumed): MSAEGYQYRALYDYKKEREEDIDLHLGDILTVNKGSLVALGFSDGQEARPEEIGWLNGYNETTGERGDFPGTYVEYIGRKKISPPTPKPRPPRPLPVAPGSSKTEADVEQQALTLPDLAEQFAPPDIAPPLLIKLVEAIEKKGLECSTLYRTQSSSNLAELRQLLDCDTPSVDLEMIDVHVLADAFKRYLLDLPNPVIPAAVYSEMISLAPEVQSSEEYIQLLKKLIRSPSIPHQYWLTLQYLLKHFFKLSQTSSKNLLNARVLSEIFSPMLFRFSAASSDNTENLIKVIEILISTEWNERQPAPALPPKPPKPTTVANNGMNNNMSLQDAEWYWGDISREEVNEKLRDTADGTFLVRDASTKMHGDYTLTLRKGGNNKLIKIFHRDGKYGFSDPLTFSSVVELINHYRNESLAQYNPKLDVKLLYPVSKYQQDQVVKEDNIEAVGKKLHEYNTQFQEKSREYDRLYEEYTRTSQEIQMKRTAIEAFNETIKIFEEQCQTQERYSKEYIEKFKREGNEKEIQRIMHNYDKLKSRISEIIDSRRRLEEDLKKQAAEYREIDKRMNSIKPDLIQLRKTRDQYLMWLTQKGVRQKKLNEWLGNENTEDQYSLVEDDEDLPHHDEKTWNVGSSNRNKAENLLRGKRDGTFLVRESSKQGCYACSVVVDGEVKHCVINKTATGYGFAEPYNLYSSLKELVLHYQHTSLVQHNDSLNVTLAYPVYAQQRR

Compound | IC50 [nM]
CCOc1c(C(C)n2nc(C)c3c(N)ncnc32)cc(Cl)c(F)c1C1CNC(=O)C1 (single isomer, unassigned) [Compound 32b, 4-{3-[1-(4-amino-3-methyl-1H-pyrazolo[3,4-d]pyrimidin-1-yl)ethyl]-5-chloro-2-ethoxy-6-fluorophenyl}pyrrolidin-2-one] | < 50
CCOc1c(C(C)n2nc(C)c3c(N)ncnc32)cc(Cl)c(F)c1C1CNC(=O)C1 (single isomer, unassigned) [Compound 32c, 4-{3-[1-(4-amino-3-methyl-1H-pyrazolo[3,4-d]pyrimidin-1-yl)ethyl]-5-chloro-2-ethoxy-6-fluorophenyl}pyrrolidin-2-one] | < 50
